Series [1] in a line: Acute oral toxicity in male mice, LD50 by Litchfield-Wilcoxon method (Test Example 5). Particulars: mouse, in vivo, mortality on the seventh day. Here is the method:
Compounds of this invention were tested on male mice for acute toxicity by oral administration.

The next series relates to warm-blooded animals. Particulars: background statement, known; cited from earlier work.
A further series concerns noxious insects. Particulars: background statement, known; cited from earlier work.
Series [2] relates to green rice leafhopper (Nephotettix cincticeps). In words: Mortality of female adults of green rice leafhopper on paddy rice (Test Example 2). Type of series: in vivo. Particulars: 72 h. Here is the method: An emulsion of specified concentration was prepared from a 50% wettable powder of the compound to be tested and applied to the leaves of paddy rice (one-month-old seedlings) planted in a pot to fully wet the leaves. After the emulsion had been dried, the pot was covered with a net cage, into which 10 female adults of green rice leafhopper (Nephotettix cincticeps) were released. The compound of each specified concentration was tested on two pots.

Series [3] concerns tobacco cutworm (Spodoptera litura). In words: Mortality of third-instar larvae of tobacco cutworm on cabbage (Test Example 1). Type of series: in vivo. Particulars: 72 h. Here is the method: Ten third-instar larvae of tobacco cutworm (Spodoptera litura) were placed on a cabbage (one-month-old seedling) planted in a pot, and a 50% emulsion of the compound to be tested was diluted to a specified concentration and applied to the leaves of the plant to fully wet them. The test compound of each specified concentration was tested on two pots.

For series [4], the system named is house fly (Musca domestica). Nature of the series: Local application to house fly, LD50 by Probit method (Test Example 4). Type of series: in vivo. Particulars: topical, 24 h. The procedure: The compound to be tested was dissolved in a predetermined amount of acetone. The solution was diluted to various concentrations and locally applied to house fly (Musca domestica).

“Also recorded” adds a separate entry of the source.

`CNC(=O)Oc1cccc2c1OC(C)(C)C2` [carbofuran, 2,3-dihydro-2,2-dimethylbenzofuran-7-yl N-methyl-carbamate]: the LD50 at 168 h in series [1] is 5.6 mg/kg. Besides, the “toxicity to warm-blooded animals” value with warm-blooded animals is “high toxicity to warm-blooded animals”. The insecticidal activity result in the series on noxious insects is recorded as “high insecticidal activity; also recorded: highest insecticidal activity heretofore known”.
The molecule `CCOC(=O)CN(Cc1ccccc1)SN(C)C(=O)Oc1cccc2c1OC(C)(C)C2` [Example 19] yielded an LD50 at 168 h in series [1] of 108 mg/kg. Moreover, in series [2], the mortality at 200 ppm worked out at 60%, the mortality at 400 ppm stood at 80% and the mortality at 800 ppm turned out to be 100%. In addition, in series [3], the mortality at 500 ppm came to 65%, the mortality at 1000 ppm was determined as 85% and the mortality at 2000 ppm came out at 100%. Further, the LD50 in series [4] was determined as 22.2 mg/kg.

Usually LD50 stands for the dose expected to kill half of the subjects tested. Read a low LD50 as a more toxic substance. As a reminder, the mortality is the share of the test organisms that died.
